In experiment [1] the target is SCD1 (Rattus norvegicus (Rat), UniProt P07308). The experiment can be described thus: SCD1 enzymatic assay in rat liver microsomes (RLM). It is filed as biochemical. As for the experimental part: Step 1: Preparation of Rat Liver Microsome (RLM)
Sprague Dawley rats from Charles River (200-225 g) underwent 2-cycle of fast-re-feeding (24-hour fast followed by 24-hour feeding with fat-free high carbohydrate diet, Research Diet, D00042802). The livers were removed and homogenized 1:4 (w/v) with pre-chilled, homogenizing buffer (10 mM Tris-HCl, 0.25 M sucrose, 1 mM EDTA, pH 7.4, supplemented with protease inhibitor cocktail). The homogenate was spun at 12,000×g for 15 min at 4° C. The supernatant was then re-centrifuged at 100,000×g for 60 min at 4° C. The pellet was re-suspended in 2 ml pre-chilled […] potassium phosphate buffer, pH 7.2, 10 mM EDTA at a concentration of 20 mg/ml. The resulting rat liver microsome (RLM) preparation was stored at […].
Step 2: SCD1 Enzymatic Assay in RLM:
The SCD1 enzymatic assay was done in a volume of 50 μL using 10 μg of RLM (prepared as described above) in a 96-well polypropylene plate (enzyme reaction buffer contains 0.1 M K-Phosphate Buffer, 10 mM ATP, 6 mM MgCl2, 1 mM CoA, 1 mM β-NADH, 1.6 mM L-glutathione, 20 μM Stearoyl-CoA). Stearoyl-[9,10-^3H]—CoA (ARC-0390, 1 mCi/mL, 60 Ci/mmol,) was added at a final concentration of 2 μCi/mL. Test compound was then added to the reaction mixture at the selected concentration. After incubation at room temperature for 2 hours, 5 μL 1 N HCl was added to stop the reaction, followed by addition of 25 μL of 10% charcoal. The reaction mixture was then transferred to 96-well Multiscreen plate (Millipore, Cat# MSFCN6B50). [^3H2O] was collected into Opti-plate (PE, Cat #6005290) by centrifuge, at 1,000 rpm for 2 minutes. 150 μL Microscint 40 (PE, cat #6013641) was then added to each well and counted on Topcount for [^3H] counts per minute (cpm). The measured cpm values were fitted with Sigmoidal dose-response curve fit with Graphpad Prism.

The target in experiment [2] is SCD1 (Homo sapiens (Human), UniProt O00767). The experiment in a line: SCD1 13C-palmitic acid assay in A431 cells. It is filed as cell-based. The following applies: read-out: A431 cells 13C-PA IC50. As for the experimental part:
Human epithelial carcinoma A431 cells were seeded at 100,000 cells/well in complete growth medium (DMEM, Cellgro #10-013-CM, 4.5 g/L glucose, 10% FBS) in the presence of 0.05 mg/mL human insulin (Hannas Pharmaceutical Supply Co Inc, Humanlin 100 U/ml, 4 mg/ml) in 96-well tissue culture plate. […] The cells were then returned to the tissue culture incubator (37° C. and 5% CO2) for 4 hrs. At the end of incubation, the cells were washed three times with 200 μL/well Hanks buffer (HBSS) and then stored at −20° C. until extraction.
For fatty acid extraction, after thawing out the plates, 40 μL of 1N KOH (containing 5 μM of internal standard 7,7,8,8-D4 palmitate) was added to each well and cell plates were incubated at 37° C. for 30 minutes. […] Acetonitrile (100 μL) was then added to extract fatty acids, followed by centrifugation at 3000 rpm for 10 minutes. 75 μL of extract was then transferred to a new glass vial in a 96-well cluster plate. 5 μL was injected for LC/MS analysis for detection of ^13C-palmitic acid and ^13C-palmitoleic acid. Formation of product ^13C-palmitoleic acid was determined as an index of SCD1 activity.
LC/MS analysis was performed as following. An Agilent 1100 Liquid Chromatographic System (Palo Alto, Calif.) consisting of a binary pump, a degasser and an autosampler was used. Separation of free fatty acids was performed on a Zorbax SB—C8 column (2.1×50 mm, particle size=3.5 μm). An isocratic elution was carried out with 10 mM triethylamine acetate in water:acetonitrile (3:7) at a flow rate of 0.3 mL/min. The column temperature was set at 30° C. and the sample injection volume was 5 μL. The LC run cycle was 4 min, A Micromass triple-quadrupole Quattro Micro mass […] (Waters, Beverly, Mass.) was interfaced with the LC system through a Z-spray electrospray ion source and was operated in the negative ion mode. Nitrogen was used as nebulizing gas, desolvation gas and cone curtain gas and argon was chosen as collision gas. The triple quadrupole MS source parameters were set as follows: capillary voltage, 3200V; cone voltage, 25V; extractor 2V, source temperature, 120° C.; desolvation temperature, 300° C.; cone gas flow, 50 L/h; and desolvation gas flow, 700 L/h. […] MassLynx software version 4.0 was used for system control and data processing. The signal of U—^13C-palmitoleic acid was normalized to an internal standard.

“And” between values parts separate entries of the source, which are not always exact repeats. Identical values can stand only once.

Chain of SCD1 (Rattus norvegicus (Rat), UniProt P07308) (P07308 whole entry): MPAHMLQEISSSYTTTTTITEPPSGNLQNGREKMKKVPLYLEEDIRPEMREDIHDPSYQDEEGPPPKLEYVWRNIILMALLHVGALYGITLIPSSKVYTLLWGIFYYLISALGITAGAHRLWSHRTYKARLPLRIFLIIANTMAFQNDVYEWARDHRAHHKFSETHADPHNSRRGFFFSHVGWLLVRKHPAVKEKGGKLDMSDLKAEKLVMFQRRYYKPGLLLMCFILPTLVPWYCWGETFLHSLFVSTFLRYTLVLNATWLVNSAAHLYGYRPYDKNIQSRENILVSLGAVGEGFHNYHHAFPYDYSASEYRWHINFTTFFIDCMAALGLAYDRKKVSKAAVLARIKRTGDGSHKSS
Chain of SCD1 (Homo sapiens (Human), UniProt O00767) (O00767 whole entry): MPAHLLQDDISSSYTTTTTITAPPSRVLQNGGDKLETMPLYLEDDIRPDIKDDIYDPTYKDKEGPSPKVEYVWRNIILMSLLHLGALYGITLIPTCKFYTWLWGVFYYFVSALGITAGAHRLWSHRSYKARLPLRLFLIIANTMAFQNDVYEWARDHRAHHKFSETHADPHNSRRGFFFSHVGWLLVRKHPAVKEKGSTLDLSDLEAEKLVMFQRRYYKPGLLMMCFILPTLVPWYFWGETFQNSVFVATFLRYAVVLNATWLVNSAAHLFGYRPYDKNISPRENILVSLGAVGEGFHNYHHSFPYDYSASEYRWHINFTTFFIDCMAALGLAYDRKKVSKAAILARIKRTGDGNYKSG

In the case of `O=C(Nc1cccc(CO)c1)N1CCC(N2CCc3ccc(F)cc32)CC1` [Compound 43, 4-(6-fluoroindolin-1-yl)-N-(3-(hydroxymethyl)phenyl)piperidine-1-carboxamide], the IC50 stood at 0.322 µM against SCD1 [1] and 0.161 µM at SCD1 [2]. Besides, on SCD1 [1] (1 μM test compound), the inhibition at 1 µM amounted to 61%.

As to `O=C1NCCn2nc(NC(=O)N3CCC(N4CCc5ccc(F)cc54)CC3)cc21` [Compound 37, 4-(6-fluoroindolin-1-yl)-N-(4-oxo-4,5,6,7-tetrahydropyrazolo[1,5-a]pyrazin-2-yl)piperidine-1-carboxamide], the IC50 on SCD1 [1] was 0.014 µM and 0.022 µM; on SCD1 [2], 0.03 µM. Besides, the “% Inh. @ 1 μM” value on SCD1 [1] (1 μM test compound) came out at 89%. The inhibition at 1 µM at SCD1 [1] (1 μM test compound) amounted to 95%.

For `O=C(Nc1nc2c(s1)CN(CCO)CC2)N1CCC(N2CCc3ccc(F)cc32)CC1` [Compound 38, 4-(6-fluoroindolin-1-yl)-N-(5-(2-hydroxyethyl)-4,5,6,7-tetrahydrothiazolo[5,4-c]pyridin-2-yl)piperidine-1-carboxamide], the results for the IC50 against SCD1 [1] and at SCD1 [2] were 0.77 µM and 0.44 µM, respectively.

`O=C(Nc1nc2c(s1)CNCC2)N1CCC(N2CCc3ccc(F)cc32)CC1` [Compound 36, 4-(6-fluoroindolin-1-yl)-N-(4,5,6,7-tetrahydrothiazolo[5,4-c]pyridin-2-yl)piperidine-1-carboxamide]: the IC50 is 0.029 µM at SCD1 [1] and 0.016 µM at SCD1 [2]. Further, the inhibition at 1 µM against SCD1 [1] (1 μM test compound) amounted to 91%.

Regarding `NC(=O)c1cccc(NC(=O)N2CCC(N3CCc4ccc(F)cc43)CC2)c1` [Compound 16, N-(3-carbamoylphenyl)-4-(6-fluoroindolin-1-yl)piperidine-1-carboxamide], the IC50 against SCD1 [1] is 0.02 µM; on SCD1 [2], 0.093 µM. The inhibition at 1 µM against SCD1 [1] (1 μM test compound) is 96%.

Take `O=C(Nc1ncc(CO)s1)N1CCC(N2CCc3ccc(F)cc32)CC1` [Compound 24, 4-(6-fluoroindolin-1-yl)-N-(5-(hydroxymethyl)thiazol-2-yl)piperidine-1-carboxamide]: the IC50 amounted to 0.088 µM at SCD1 [1] and 0.154 µM on SCD1 [2]. The inhibition at 1 µM against SCD1 [1] (1 μM test compound) was found to be 97%.

For the molecule `O=C(CO)N1CCc2nc(NC(=O)N3CCC(N4CCc5ccc(F)cc54)CC3)sc2C1` [Compound 35, 4-(6-fluoroindolin-1-yl)-N-(5-(2-hydroxyacetyl)-4,5,6,7-tetrahydrothiazolo[5,4-c]pyridin-2-yl)piperidine-1-carboxamide], the results for the IC50 at SCD1 [1] and on SCD1 [2] were 0.096 µM and 0.113 µM, respectively. Also, the inhibition at 1 µM on SCD1 [1] (1 μM test compound) is 92%.

Take `O=C(Nc1nc(CCO)cs1)N1CCC(N2CCc3ccc(F)cc32)CC1` [Compound 29, 4-(6-fluoroindolin-1-yl)-N-(4-(2-hydroxyethyl)thiazol-2-yl)piperidine-1-carboxamide]: the IC50 is 0.02 µM against SCD1 [1] and 0.018 µM at SCD1 [2]. Also, the inhibition at 1 µM on SCD1 [1] (1 μM test compound) was found to be 94%.

Consider `O=C(Nc1nc(CO)cs1)N1CCC(N2CCc3ccc(F)cc32)CC1` [Compound 25, 4-(6-fluoroindolin-1-yl)-N-(4-(hydroxymethyl)thiazol-2-yl)piperidine-1-carboxamide], for which the IC50 against SCD1 [1] was 0.052 µM; on SCD1 [2], 0.042 µM. At SCD1 [1] (1 μM test compound), the inhibition at 1 µM worked out at 94%.

In the case of `O=C(Nc1ncc(CCO)s1)N1CCC(N2CCc3ccc(F)cc32)CC1` [Compound 50, 4-(6-fluoroindolin-1-yl)-N-(5-(2-hydroxyethyl)thiazol-2-yl)piperidine-1-carboxamide], the IC50 on SCD1 [1] was 0.008 µM; at SCD1 [2], 0.006 µM. Further, the inhibition at 1 µM against SCD1 [1] (1 μM test compound) came out at 102%.

As for `COC(=O)c1cnc(NC(=O)N2CCC(N3CCc4ccc(F)cc43)CC2)s1` [Compound 18, methyl 2-(4-(6-fluoroindolin-1-yl)piperidine-1-carboxamido)thiazole-5-carboxylate], the values for the IC50 against SCD1 [1] and at SCD1 [2] were 0.363 µM and 0.221 µM, respectively. Also, the inhibition at 1 µM against SCD1 [1] (1 μM test compound) was 62%.

Take `O=C(Nc1nc2c(s1)COCC2)N1CCC(N2CCc3ccc(F)cc32)CC1` [Compound 61, N-(6,7-dihydro-4H-pyrano[4,3-d]thiazol-2-yl)-4-(6-fluoroindolin-1-yl)piperidine-1-carboxamide]: the values for the IC50 against SCD1 [1] and on SCD1 [2] were 0.204 µM and 0.017 µM, respectively. On SCD1 [1] (1 μM test compound), the inhibition at 1 µM amounted to 99%.

In the case of `O=C1OCc2ccc(NC(=O)N3CCC(N4CCc5ccc(F)cc54)CC3)cc21` [Compound 47, 4-(6-fluoroindolin-1-yl)-N-(3-oxo-1,3-dihydroisobenzofuran-5-yl)piperidine-1-carboxamide], the IC50 amounted to 0.017 µM against SCD1 [1] and 0.027 µM at SCD1 [2]. Further, the inhibition at 1 µM on SCD1 [1] (1 μM test compound) was 83%.

Regarding `O=C(Nc1nc(CCO)cs1)N1CCC(c2noc3ccc(F)cc23)CC1` [Compound 54, 4-(5-fluorobenzo[d]isoxazol-3-yl)-N-(4-(2-hydroxyethyl)thiazol-2-yl)piperidine-1-carboxamide], the figures for the IC50 on SCD1 [1] and on SCD1 [2] were 0.029 µM and 0.038 µM, respectively. Also, the inhibition at 1 µM at SCD1 [1] (1 μM test compound) was 95%.

For `O=C(Nc1ncc(CCO)s1)N1CCC(c2noc3ccc(F)cc23)CC1` [Compound 55, 4-(5-fluorobenzo[d]isoxazol-3-yl)-N-(5-(2-hydroxyethyl)thiazol-2-yl)piperidine-1-carboxamide], the IC50 was determined as 0.011 µM on SCD1 [1] and 0.03 µM at SCD1 [2]. In addition, the inhibition at 1 µM against SCD1 [1] (1 μM test compound) is 92%.

Consider `O=C(Nc1nc2c(s1)CCCC2)N1CCC(N2CCc3ccc(F)cc32)CC1` [Compound 62, 4-(6-fluoroindolin-1-yl)-N-(4,5,6,7-tetrahydrobenzo[d]thiazol-2-yl)piperidine-1-carboxamide], for which the IC50 is 0.347 µM against SCD1 [1] and 0.076 µM on SCD1 [2]. In addition, the inhibition at 1 µM against SCD1 [1] (1 μM test compound) was determined as 68%.

Consider `Cc1cnc(NC(=O)N2CCC(c3noc4ccc(F)cc34)CC2)s1` [Compound 14, 4-(5-fluorobenzo[d]isoxazol-3-yl)-N-(5-methylthiazol-2-yl)piperidine-1-carboxamide], for which the IC50 turned out to be 0.303 µM against SCD1 [1] and 0.169 µM at SCD1 [2]. For the same molecule, the inhibition at 1 µM on SCD1 [1] (1 μM test compound) came out at 86%.

Regarding `CNC(=O)c1cnc(NC(=O)N2CCC(N3CCc4ccc(F)cc43)CC2)s1` [Compound 19, 2-(4-(6-fluoroindolin-1-yl)piperidine-1-carboxamido)-N-methylthiazole-5-carboxamide], the IC50 against SCD1 [1] amounted to 0.093 µM; on SCD1 [2], 0.206 µM. Moreover, the inhibition at 1 µM at SCD1 [1] (1 μM test compound) is 94%.

At SCD1 [1], `CCOC(=O)c1csc(NC(=O)N2CCC(N3CCc4ccc(F)cc43)CC2)n1` [Compound 22, ethyl 2-(4-(6-fluoroindolin-1-yl)piperidine-1-carboxamido)thiazole-4-carboxylate] returned an IC50 above 1 µM. Besides, the inhibition at 1 µM against SCD1 [1] (1 μM test compound) turned out to be 8%.

For the molecule `COC(=O)Cc1cnc(NC(=O)N2CCC(c3noc4ccc(F)cc34)CC2)s1` [Compound 52, methyl 2-(2-(4-(5-fluorobenzo[d]isoxazol-3-yl)piperidine-1-carboxamido)thiazol-5-yl)acetate], the inhibition at 1 µM against SCD1 [1] (1 μM test compound) amounted to 15%.

The values are drawn from patent US9238658B2, “Substituted piperidinyl-carboxamide derivatives useful as SCD 1 inhibitors” (Janssen Pharmaceutica NV, priority 2011, dated 2016).
